Data taken from US20040092485A1, “Ascorbic acid 2-phosphate metal salt with low calcium content” (priority 2001, published 2004).
Structures can show the parent of a compound that is named as a salt.

Columns and labels:
[1] = In-solution Stability Test 1 (clouding by eye in citrate/citric acid, glycerol·1,3-butylene glycol·ethanol, water solution); type: physicochemical; design: key to In-solution Stability Test 1 Room Temperature (20° C.) / In-solution Stability Test 1 50° C.: A: No clouding; B: Clouded; Distinguished Clouding; conditions: for In-solution Stability Test 1 50° C.: left standing at 50° C. for 10 days; for In-solution Stability Test 1 50° C. / In-solution Stability Test 1 Room Temperature (20° C.): 2 g sample, 16 g mixed solution, clouding state observed by eye; for In-solution Stability Test 1 Room Temperature (20° C.): left standing at room temperature (20° C.) for 1 month
Method: In-solution Stability Test 1
(§1) Into a 200 ml-volume Erlenmeyer flask, 2 g of a sample (APM), 0.4 g of sodium citrate dihydrate and 0.05 g of citric acid were charged. Thereto, 16 g of glycerol·1,3-butylene glycol·ethanol mixed solution (volume ratio: 3:5:8) was added and the resulting solution was stirred for 30 minutes. Thereto, 82 g of pure water was added and the resulting solution was further stirred for 2 hours. After filtering this solution through a filter, a half amount was left standing at room temperature (20° C.) for 1 month and the remaining half amount was left standing at 50° C. for 10 days.

[2] = In-solution Stability Test 2 (clouding by eye in citrate/citric acid, glycerol·1,3-butylene glycol·ethanol, water solution); type: physicochemical; design: key to In-solution Stability Test 2 Room Temperature (20° C.) / In-solution Stability Test 2 50° C.: A: No clouding; B: Clouded; Distinguished Clouding; conditions: for In-solution Stability Test 2 50° C.: left standing at 50° C. for 10 days; for In-solution Stability Test 2 50° C. / In-solution Stability Test 2 Room Temperature (20° C.): 2 g sample, 15 g mixed solution, clouding state observed by eye; for In-solution Stability Test 2 Room Temperature (20° C.): left standing at room temperature (20° C.) for 1 month
Method: In-solution Stability Test 2
as §1, with “charged. Thereto, 15 g of” for “charged. Thereto, 16 g of”, “3:5:8) was charged and the” for “3:5:8) was added and the”, “added and further stirred” for “added and the resulting solution was further stirred”

[3] = temperature not specified in the sentence (whole test)

Row | SMILES | In-solution Stability Test 1 50° C. [1] | In-solution Stability Test 1 Room Temperature (20° C.) [1] | clouding in in-solution stability test 1 [1, 3] | In-solution Stability Test 2 50° C. [2] | In-solution Stability Test 2 Room Temperature (20° C.) [2] | clouding in in-solution stability test 2 [2, 3] | clouding in in-solution stability test 1 ([1]; 50° C.) | clouding in in-solution stability test 1 ([1]; room temperature (20° C.)) | clouding in in-solution stability test 2 ([2]; 50° C.) | clouding in in-solution stability test 2 ([2]; room temperature (20° C.))
1 | O=C1O[C@H]([C@@H](O)CO)C(O)=C1OP(=O)(O)O [Example 1, L-ascorbic acid 2-phosphate magnesium salt] | A | A | clouding was not observed | A | A | clouding was not observed | – | – | – | –
2 | O=C1O[C@H]([C@@H](O)CO)C(O)=C1OP(=O)([O-])[O-].[Mg+2] [Comparative Example 2, L-ascorbic acid 2-phosphate magnesium salt] | C | B | – | C | C | – | more distinguished clouding was observed | clouding was observed | distinguished clouding was observed | distinguished clouding was observed
3 | O=C1O[C@H]([C@@H](O)CO)C(O)=C1OP(=O)([O-])[O-].[Mg+2] [Comparative Example 1, L-ascorbic acid 2-phosphate magnesium salt] | C | B | – | C | B | – | more distinguished clouding was observed | clouding was observed | more distinguished clouding was observed | clouding was observed
